This is an account of results in paper PMC10353390, “Biological and Structural Analyses of New Potent Allosteric Inhibitors of HIV-1 Integrase” (Antimicrobial Agents and Chemotherapy, 2023).

Data set [1] relates to HIV-1 strains resistant to INSTIs, NRTIs, NNRTIs or PIs. Type of data set: cell-based. Put shortly:
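Cell viability (CellTiter-Glo luminescence) served as read-out in MT4 cells at 10^6/mL, infected 2 h at MOI 0.001 in presence of graded compound concentrations. Viruses: resistance-mutation recombinants in NL4-3 backbone plus resistant clinical isolates.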

A further data set concerns HXB2 HIV-1 strain. In words: Multiple-round infection assay in MT4 cells, HXB2. It counts as cell-based. Conditions: Human immunodeficiency virus 1, HXB2; multiple-round infection, MT4 cells; mean ± SD, n > 5; read-out: EC50 HXB2. Put shortly:
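Antiviral read-out was CellTiter-Glo luminescent viability of exponentially growing MT4 cells (10^6/mL). Cells were exposed to HIV-1 for 2 h at an MOI of 0.001 while compound was present at varying concentrations.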

The target in data set [2] is HIV-1 IN-LEDGF/p75 interaction (Human immunodeficiency virus type 1 group M subtype B, UniProt P12497). Put plainly: biochemical.
Protocol: The INLAIs were tested for the ability to inhibit the HIV-1 IN-LEDGF/p75 interaction in a homogeneous time-resolved fluorescence (HTRF) assay. Our assays used either full-length IN and LEDGF/p75 proteins or their respective minimally sufficient interaction domains: the CCD of HIV-1 IN and the IBD of LEDGF/p75 (Table 1).
HTRF-based CCD-IBD interaction, IN-LEDGF/p75 interaction and IN multimerization assays were performed as described previously ([12]).
Details of data set [3]: method as in ref 20 = [20]; 20 Single ascending dose trial investigating safety, tolerability and pharmacokinetics of BDM-2 in healthy male subjects . https://clinicaltrials.gov/ct2/show/NCT03634085 . Accessed 17 July 2020 . Particulars: single ascending dose, healthy male subjects; cited from earlier work.
A further data set addresses T1, HIV-1 IN (Human immunodeficiency virus type 1 group M subtype B, UniProt P12497).
T1 construct: made in house
In words: HTRF IN multimerization assay. It counts as biochemical. Conditions: mean ± SD. An excerpt: A key property of INLAIs is the ability to promote HIV-1 IN homo-multimerization ([39][–][42]). […] The maximal signal (plateau) in our IN aggregation assay corresponds to the highest HTRF signal increase under saturating INLAI concentration, relative to baseline level. Thus, MUT916, MUT884, MUT871, and MUT872 increased HIV-1 IN aggregation 3.7 to 4.4-fold, while BDM-2, BI-224436, and S-I-82 did so 5 to 6-fold (Table 1).

Setting [4] is: INSTI-resistant, NL4-3 background.
Setting [5] is: INSTI-resistant, primary patient-derived strain.

As for `Cc1ccc(C2CC2)c(-c2ccc3c(c2)CCCO3)c1[C@H](OC(C)(C)C)C(=O)O` [BDM-2], in data set [1] (setting [4]), the “Fold change in EC50 relative to NL4-3, E92Q” value amounted to 1; the “Fold change in EC50 relative to NL4-3, G140S” value amounted to 1; the “Fold change in EC50 relative to NL4-3, G140S/Q148H” value is 1; the “Fold change in EC50 relative to NL4-3, N155H” value was 1. For the same compound, in data set [1] (setting [4]), the “Fold change in EC50 relative to NL4-3, Q148H” value was determined as 1 and the “Fold change in EC50 relative to NL4-3, Y143R” value is recorded as 1. In addition, in data set [1] (setting [5]), the “Fold change in EC50 relative to NL4-3, E92Q/N155H (pat.)” value is 1; the “Fold change in EC50 relative to NL4-3, G140S/Q148H (pat.)” value was found to be 1; the “Fold change in EC50 relative to NL4-3, T97A/N155H (pat.)” value is 1. Moreover, in data set [1] (NRTI-resistant clone), the “Fold change in EC50 relative to NL4-3, NLAY351717” value is 2. For the same compound, the “Fold change in EC50 relative to NL4-3, NLAY351753” value in data set [1] (NRTI/NNRTI-resistant clone) came out at 1. The “Fold change in EC50 relative to NL4-3, K103N/Y181C” value in data set [1] (NRTI/NNRTIs group, NL4-3 background) came out at 1. For the same compound, in data set [1] (PI-resistant virus), the “Fold change in EC50 relative to NL4-3, ARP-4595” value amounted to 1; the “Fold change in EC50 relative to NL4-3, ARP-4596” value is on record as 0.5; the “Fold change in EC50 relative to NL4-3, ARP-11801” value is reported as 1; the “Fold change in EC50 relative to NL4-3, ARP-11803” value was found to be 1. In addition, in data set [1] (PI-resistant virus), the “Fold change in EC50 relative to NL4-3, ARP-11807” value stood at 1 and the “Fold change in EC50 relative to NL4-3, ARP-11808” value is 1. The EC50 (commonly the concentration needed to bring the measured effect to its halfway point) in the data set with HXB2 HIV-1 strain was found to be 4.5 ± 1.2 nM. For the same compound, the IC50 (in general, the point on the concentration scale where inhibition reaches its midpoint) in data set [2] amounted to 47 ± 14 nM. Further, in data set [3], the “safety in phase I clinical trial” value is “without any serious adverse event and few mild adverse events”. In addition, the AC50 (as a rule, the midpoint of the concentration-response curve, whichever way the signal moves) at HIV-1 IN (concentration for 50% maximum activation of multimerization) came out at 20 ± 11 nM. Also, the “IN multimerization Plateau” value on HIV-1 IN (maximum multimerization reached versus baseline) is listed as 560 ± 150%.
